This is an account of results in patent publication US20080045560A1, “Pyrrolidine and related derivatives useful as PR modulators” (Wyeth, priority 2006, published 2008).

The melting point is the temperature, or range, at which the solid turns liquid. By IC50 is commonly meant the concentration needed to halve the response being measured. What is called inhibition is the change of the read-out against control, counted positive when it falls.

For data set [1], the system named is progesterone receptor (alkaline phosphatase activity in T47D cells). In words: Effects of progestins and antiprogestins on alkaline phosphatase activity in T47D cells (antagonist mode). It is filed as cell-based. The note with it: Homo sapiens, in the presence of 1 nM progesterone, 24 h; for inhibition at 0.003 µM: at 3 nM. The protocol:
(1) Effects of Progestins and Antiprogestins on Alkaline Phosphatase Activity in T47D Cells.
• PURPOSE: To identify progestins or antiprogestins by determining a compound's effect on alkaline phosphatase activity in T47D cells.
Culture medium: • DMEM:F12 (1:1) (GIBCO, BRL) supplemented with 5% (v/v) charcoal stripped fetal bovine serum (not heat-inactivated), 100 U/mL penicillin, 100 μg/mL streptomycin, and 2 mM the GlutaMax™ reagent (GIBCO, BRL).
Alkaline phosphatase assay buffer: • I. 0.1M Tris-HCl, pH 9.8, containing 0.2% the Triton® X-100 reagent • II. 0.1M Tris-HCl, pH 9.8, containing 4 mM p-nitrophenyl phosphate (Sigma).
Frozen T47D cells were thawed in a 37° C. water bath and diluted to 280,000 cells/mL in culture medium. To each well in a 96-well plate (Falcon, Becton Dickinson Labware), 180 μL of diluted cell suspension was added.
Twenty μL of reference or test compounds diluted in the culture medium was then added to each well. When testing for progestin antagonist activity, reference antiprogestins or test compounds were added in the presence of 1 nM progesterone. The cells were incubated at 37° C. in a 5% CO2/humidified atmosphere for 24 h. NOTE: For high throughput screening, one concentration of each compound was tested at 0.3 μg/mL. Based on an average molecular weight of 300 g/mol for the compounds in the library, the concentration was approximately 1 μM. Subsequently, active compounds were tested in dose response assays to determine EC50 and IC50.
At the end of treatment, the medium was removed from the plate. Fifty μL of assay buffer I was added to each well. The plates were shaken in a titer plate shaker for 15 min. Then 150 μL of assay buffer II was added to each well. Optical density measurements were taken at 5 min intervals for 30 min at a test wavelength of 405 nm.
For reference and test compounds, a dose response curve was generated for dose (X-axis) vs. the rate of enzyme reaction (slope) (Y-axis). Square root-transformed data was used for analysis of variance and nonlinear dose response curve fitting for both agonist and antagonist modes. Huber weighting was used to down-weight the effects of outliers. EC50 or IC50 values were calculated from the retransformed values. JMP software (SAS Institute, Inc.) was used for both one-way analysis of variance and non-linear dose response analysis in both single dose and dose response studies.
Progesterone and trimegestone were reference progestins and RU486 was the reference antiprogestin. All reference compounds were run in full dose response curves and the EC50 and IC50 values were calculated.

The compound `CC1(C)COC(=O)N1c1nc(-c2cccc(C#N)c2)cs1` [Example 3, 3-[2-(4,4-dimethyl-2-oxo-1,3-oxazolidin-3-yl)-1,3-thiazol-4-yl]benzonitrile] returned a melting point of 181 to 183 °C.

Take `CC1(C)CCC(=O)N1c1nc(-c2ccc(C#N)cc2)c(F)s1` [Example 9, 4-[2-(2,2-Dimethyl-5-oxopyrrolidin-1-yl)-5-fluoro-1,3-thiazol-4-yl]benzonitrile]: the IC50 in data set [1] was found to be 31.6 nM.

As for `O=C1C2CCC(CC2)N1c1nc(-c2ccc(Br)cc2)cs1` [Example 10, 2-[4-(4-bromophenyl)-1,3-thiazol-2-yl]-2-azabicyclo[2.2.2]octan-3-one], the IC50 in data set [1] turned out to be 44.4 nM. For `CC1(C)CCC(=O)N1c1nc(-c2ccc(C#N)cc2)cs1` [Example 8, 4-[2-(2,2-Dimethyl-5-oxopyrrolidin-1-yl)-1,3-thiazol-4-yl]benzonitrile], the inhibition at 0.003 µM in data set [1] is 50%.

`CCC1(CC)COC(=O)N1c1nc(-c2ccc(C#N)cc2)cs1` [Example 2, 4-[2-(4,4-Diethyl-2-oxo-1,3-oxazolidin-3-yl)-1,3-thiazol-4-yl]benzonitrile]: the melting point was 145 to 147 °C.

For `N#Cc1ccc(-c2csc(N3C(=O)C4CCC3CC4)n2)cc1` [Example 11, 4-[2-(3-oxo-2-azabicyclo[2.2.2]oct-2-yl)-1,3-thiazol-4-yl]benzonitrile], in data set [1], the half-inhibitory concentration (IC50) was found to be 4.8 nM. `C[C@@H]1COC(=O)N1c1nc(-c2ccc(Br)cc2)cs1` [Example 1, (4R)-3-[4-(4-Bromophenyl)-1,3-thiazol-2-yl]-4-methyl-1,3-oxazolidin-2-one] had a melting point of 197 to 199 °C.

In the case of `CC1(C)C=CC(=O)N1c1nc(-c2ccc(C#N)cc2)cs1` [Example 7, 4-[2-(2,2-Dimethyl-5-oxo-2,5-dihydro-1H-pyrrol-1-yl)-1,3-thiazol-4-yl]benzonitrile], the inhibition at 0.003 µM in data set [1] was found to be 60%.
